These results are taken from US10080804B2, “Conjugate with target-finding ligand and use thereof” (ethris GmbH, priority 2009, dated 2018).

For one data set, the target named is T1, human IP1 receptor (Homo sapiens, UniProt P43119).
T1 construct: The expression of IP1 receptor in human alveolar (A549) and bronchial (BEAS-2B, 16HBE14o-) epithelial cells was confirmed by Western blot analysis; endogenous in cells; host or cells: 16HBE14o- human bronchial epithelial cells
Kind of data set: Inhibition of FLUO-BSA-ILO receptor binding/uptake with CAY10449 on 16HBE14o-cells (FACS). It is filed as cell-based. As to conditions: 25 nM conjugate, increasing CAY10449 (15, 30, 150 μM) or excess of unconjugated ILO. The procedure:
24-well plates were prepared as described above. CAY10449 was diluted in MEM to concentrations of 15 μM, 30 μM and 150 μM, and the mixtures were incubated at 37° C. for 15 min. […] The binding/uptake was measured using FACS.

The conditions of data set [1]: physiological environment, i.e. in the blood; cited from earlier work.
The subject of data set [2] is 16HBE14o-cells. Kind of data set: Confocal laser scanning microscopy of surface binding and intracellular uptake. As to conditions: 0.5 μM conjugate. It is filed as cell-based, human. The procedure:
(§1) For the FACS measurement experiments, 100 000 cells/well were seeded in 24-well plates (TPP, Trasadingen, Switzerland) 24 hours before adding the conjugates. […] After the cells had been washed with PBS, the cells were removed from the wells by treatment with trypsin, and the FACS measurements were carried out using a Beckton-Dickinson FACS scan (San Jose, USA). For the confocal laser scanning microscopy, the experiments were carried out on slides with 4 chambers from BD Falcon Culture (BD Biosciences San Jose, USA) with 25 000 cells per chamber. The incubation of FLUO-BSA-ILO and FLUO-BSA was performed as described above. The cells were washed and fixed in 4% paraformaldehyde, and the nuclei were subsequently stained with 0.33 μM DAPI (4′,6-diamidino-2-phenylindole) and F-actin with Alexafluor® 568 Falloidin (Invitrogen GmbH, Karlsruhe, Germany) using standard protocols. The slides were covered with medium (Vectashield, Vector Laboratories Inc., Berlingame, USA), and images were taken with a confocal laser scanning microscope (Leica, Solms, Germany).

For the next data set, the system named is A549 cells. Kind of data set: FACS receptor binding/uptake of fluorescein-BSA conjugates. It is filed as cell-based, human. As to conditions: 0.5 μM conjugate, 4 h, 37° C. The procedure:
as §1

The subject of data set [3] is 16HBE14o-cells. Described as above. The class given is cell-based, human. As to conditions: 0.5 μM conjugate, 4 h, 37° C. How it is done: as §1
In a further data set the test system is BEAS-2B cells. The data set is described as above. As to conditions: 0.5 μM conjugate, 4 h, 37° C. The class given is cell-based, human. The procedure: as §1
The next data set has as its system H441 cells. Described as above. As to conditions: 0.5 μM conjugate, 4 h, 37° C. The class given is cell-based, human. How it is done: as §1

T1 sequence (P43119 whole entry): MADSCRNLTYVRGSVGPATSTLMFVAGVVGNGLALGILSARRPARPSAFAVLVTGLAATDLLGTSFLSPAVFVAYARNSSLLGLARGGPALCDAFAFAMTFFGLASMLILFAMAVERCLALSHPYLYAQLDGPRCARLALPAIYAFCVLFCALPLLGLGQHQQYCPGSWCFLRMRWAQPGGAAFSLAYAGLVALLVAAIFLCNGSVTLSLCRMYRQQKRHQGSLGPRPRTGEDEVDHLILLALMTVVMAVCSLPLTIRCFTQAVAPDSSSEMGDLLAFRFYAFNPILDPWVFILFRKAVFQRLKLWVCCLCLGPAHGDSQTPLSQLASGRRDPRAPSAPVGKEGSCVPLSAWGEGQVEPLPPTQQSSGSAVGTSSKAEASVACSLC

As for `CC(C)Oc1ccc(Cc2ccc(NC3=NCCN3)cc2)cc1` [CAY10449], the “effect of competitor on number of fluorescence-positive cells and MFI” value on human IP1 receptor is reported as “significant dose-dependent reduction”.
Take `CCCCC[C@H](O)/C=C/[C@@H]1[C@H]2C/C(=C/CCCC(=O)O)O[C@H]2C[C@H]1O` [prostacyclin]: the half-life result in data set [1] is listed as “only a few minutes”.
With “FLUO-BSA: fluorescein-labeled bovine serum albumin, control without ligand”, the “cell surface binding and intracellular uptake (confocal microscopy)” value in the data set on 16HBE14o-cells [2] is listed as “no uptake”. For the same molecule, the “positive A549 cells” value with A549 cells is on record as “unspecific background binding”. The “positive 16HBE14o-cells” value in the data set on 16HBE14o-cells [3] is “unspecific background binding”. For the same molecule, the “positive cells (BEAS-2B)” value with BEAS-2B cells is on record as 13.7±1.2%. Further, in the data set with H441 cells, the “positive cells (H441)” value is 9.1±1.9%. For the same molecule, the “effect of competitor on number of fluorescence-positive cells and MFI” value with human IP1 receptor was “no activity”.
